The target in the test is T1, Cgs (CgsWT) (Agrobacterium fabrum, UniProt Q7CWD9).
T1 construct: gene chvB; full length, C-terminal 3xFlag from chromosomal insertion; purified from native A. tumefaciens C58 membranes in DDM; nanodiscs (cryo-EM) or proteoliposomes (activity); subpopulation of dimers
Nature of the test: cryo-EM structure. In kind it is binding. As to conditions: GT active site; sample incubated with 5 mM UDP-Glc, 1.5 mM MgCl2, pH 7.5, 22 °C; putative UDP density.

Molecules are shown by their SMILES.

On to `O=c1ccn([C@@H]2O[C@H](COP(=O)(O)OP(=O)(O)O)[C@@H](O)[C@H]2O)c(=O)[nH]1` [UDP], for which the cryo-EM structure result is “The CgsWT model contains an additional density docked at the active site”.

The record behind these values is publication PMC10901819, “Structure-function analysis of the cyclic β-1,2-glucan synthase from Agrobacterium tumefaciens” (Nature Communications, 2024).
